# Values joined by “and” are separate entries in the source; they are usually repeats but may differ in a detail not shown here. Identical values can stand only once.
# Columns and labels:
# [1] = system: central CB1 receptor-driven responses; set-up: method as in PMID 17630359; conditions: cited from earlier work
# [2] = molecular target: T1, brain CB1 receptor (Rattus norvegicus, UniProt P20272); experiment: Ex vivo brain receptor occupancy; assay type: in vivo
# T1 construct: Brain homogenates were prepared by adding TME buffer to pre-weighed tissue; from tissue; host or cells: brain homogenate of Sprague Dawley rats dosed p.o
# T1 sequence (P20272 whole entry): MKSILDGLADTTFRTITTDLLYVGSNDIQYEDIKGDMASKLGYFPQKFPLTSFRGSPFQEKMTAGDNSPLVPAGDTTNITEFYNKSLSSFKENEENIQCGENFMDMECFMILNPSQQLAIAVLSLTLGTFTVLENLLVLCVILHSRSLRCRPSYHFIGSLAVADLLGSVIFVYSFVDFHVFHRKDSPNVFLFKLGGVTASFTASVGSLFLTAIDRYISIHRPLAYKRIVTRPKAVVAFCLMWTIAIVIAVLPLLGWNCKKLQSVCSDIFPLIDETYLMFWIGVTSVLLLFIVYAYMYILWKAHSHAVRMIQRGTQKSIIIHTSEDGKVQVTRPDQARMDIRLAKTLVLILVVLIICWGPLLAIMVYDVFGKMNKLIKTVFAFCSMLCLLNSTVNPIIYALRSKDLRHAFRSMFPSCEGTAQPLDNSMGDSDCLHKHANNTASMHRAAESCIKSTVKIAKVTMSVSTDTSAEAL
# Method: An ex vivo brain receptor occupancy assay was used to calculate the in vivo receptor occupancy of CE-178253 at selected doses. […] Brains were removed from the rats 2 hr after return of food. […] The homogenate was diluted to a concentration of 2 mg/mL using TME buffer. […] The plates were then covered and incubated for 90 min at room temperature on a plate shaker. Reactions were stopped by the addition of 100 μL ice cold 7.5% BSA in TME. The plates were aspirated then harvested onto GF/C filter plates (Perkin Elmer Life Sciences; Boston, MA) using ice-cold TME buffer. The filter plates had been pre-soaked in 50 μL 0.5% BSA in TME for 60 min. Filters were dried at room temperature for 30 min, after which 25 μL of Microscint™ (Perkin Elmer Life Sciences; Boston, MA) was added to each and the plates analyzed on a Microbeta counter. Care was taken in our assay to minimize drug-tissue dissociation by comparing binding in a time course and under various conditions. […] Experiments were run in triplicate with at least an n = 3 for each treatment group.
# [3] = Indirect calorimetry; assay type: in vivo, rat; conditions: for Respiratory Quotient (VCO2/VO2): veh 0.85 ± 0.03; for VO2, ave, 1-3 hr (± S-D), increase in oxygen consumption: veh 3 ± 5
# Method: Whole body oxygen consumption was measured using an indirect calorimeter (Oxymax from Columbus Instruments, Columbus, OH) in male Sprague Dawley rats. The rats (300-380 g body weight) were placed in the calorimetry chambers and the chambers were placed in activity monitors. All studies were conducted during the light cycle. Prior to the measurement of oxygen consumption, the rats were fed standard chow ad libitum. During the measurement of oxygen consumption, food was not provided to the rats. Basal, pre-dose oxygen consumption and ambulatory activity were measured every 10 min for 2.5 to 3 hr. At the end of the basal pre-dosing period, the chambers were opened and the animals were administered a single dose of compound (or veh.) by oral gavage. CE-178253 was prepared in 0.5% methylcellulose as veh. Oxygen consumption and ambulatory activity were measured every 10 min for an additional 1-6 hr after dosing. Resting oxygen consumption, during pre- and post-dosing, was calculated by averaging the 10-min O2 consumption values, excluding periods of high ambulatory activity (ambulatory activity count > 100) and excluding the first 5 values of the pre-dose period and the first value from the post-dose period. Change in oxygen consumption is reported as percent and is calculated by dividing the post-dosing resting oxygen consumption by the pre-dose oxygen consumption (X 100). VO2, VCO2, RER and locomotor activity were all measured.
# [4] = molecular target: Vanilloid 1 (TRPV1) receptor channel (Homo sapiens, UniProt Q8NER1); experiment: TRPV1 functional assay; assay type: biochemical; conditions: range 9-13%, n = 2
# Vanilloid 1 (TRPV1) receptor channel, sequence (Q8NER1 whole entry, species assumed): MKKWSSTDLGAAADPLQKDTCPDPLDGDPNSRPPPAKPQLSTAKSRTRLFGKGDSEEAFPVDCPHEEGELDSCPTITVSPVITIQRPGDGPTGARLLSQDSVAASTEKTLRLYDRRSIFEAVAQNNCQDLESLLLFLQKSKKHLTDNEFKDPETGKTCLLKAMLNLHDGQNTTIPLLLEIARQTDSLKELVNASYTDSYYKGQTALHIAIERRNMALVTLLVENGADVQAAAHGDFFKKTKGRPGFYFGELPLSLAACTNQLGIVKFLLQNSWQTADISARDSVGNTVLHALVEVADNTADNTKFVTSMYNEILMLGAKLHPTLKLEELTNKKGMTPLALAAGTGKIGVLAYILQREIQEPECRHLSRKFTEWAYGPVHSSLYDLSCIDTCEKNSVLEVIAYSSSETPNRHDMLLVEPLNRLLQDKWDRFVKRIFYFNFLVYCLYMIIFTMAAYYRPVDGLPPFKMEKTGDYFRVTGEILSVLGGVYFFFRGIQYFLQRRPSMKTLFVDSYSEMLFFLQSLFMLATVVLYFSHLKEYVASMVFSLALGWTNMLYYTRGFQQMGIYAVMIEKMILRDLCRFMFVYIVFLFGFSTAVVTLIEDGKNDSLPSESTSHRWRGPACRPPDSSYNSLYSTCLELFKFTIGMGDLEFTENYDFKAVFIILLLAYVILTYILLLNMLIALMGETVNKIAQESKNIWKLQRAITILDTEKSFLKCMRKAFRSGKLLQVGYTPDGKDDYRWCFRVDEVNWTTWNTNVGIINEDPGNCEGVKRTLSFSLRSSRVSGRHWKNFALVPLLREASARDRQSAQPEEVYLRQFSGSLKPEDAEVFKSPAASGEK
# Description: (§1) Rimonabant also binds weakly to the Vanilloid 1 (TRPV1) receptor channel. […] CE-178253 was not evaluated against TRPM8. Rimonabant has been reported to bind to TRPM8 [21].
# [5] = molecular target: T2, human CB1 in CHO cells (Homo sapiens, UniProt P21554); experiment: GTPγ[35S] functional assay, antagonism of CP-55940 stimulation, Schild analysis; assay type: biochemical
# T2 construct: expressed in transfected cells
# T2 sequence (P21554 whole entry): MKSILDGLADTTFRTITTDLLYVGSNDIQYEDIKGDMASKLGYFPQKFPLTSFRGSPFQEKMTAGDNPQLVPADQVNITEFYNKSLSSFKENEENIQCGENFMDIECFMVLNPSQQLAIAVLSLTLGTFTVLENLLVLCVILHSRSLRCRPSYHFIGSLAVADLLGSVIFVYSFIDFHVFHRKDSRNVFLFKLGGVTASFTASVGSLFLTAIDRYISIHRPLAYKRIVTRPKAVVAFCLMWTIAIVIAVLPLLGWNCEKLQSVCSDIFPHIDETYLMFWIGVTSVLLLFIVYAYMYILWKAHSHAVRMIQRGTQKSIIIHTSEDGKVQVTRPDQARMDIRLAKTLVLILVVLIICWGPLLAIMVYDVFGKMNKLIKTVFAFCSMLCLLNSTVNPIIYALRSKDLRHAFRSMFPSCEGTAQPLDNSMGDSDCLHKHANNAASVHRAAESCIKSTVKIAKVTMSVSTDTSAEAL
# Method: GTPγ[^35S] binding assays were performed as described. GTPγ[^35S] binding assays were performed in a 96-well FlashPlate™ format in duplicate using 100 pM GTPγ[^35S] and 10 μg membrane per well in assay buffer composed of 50 mM Tris HCl (pH 7.4); 3 mM MgCl2 (pH 7.4); 10 mM MgCl2, 20 mM EGTA, 100 mM NaCl, 30 μM GDP, 0.1% BSA and the following protease inhibitors: 100 μg/ml bacitracin, 100 μg/ml benzamidine, 5 μg/ml aprotinin, and 5 μg/ml leupeptin. […] Assays were performed at 30°C for 1 hr. The FlashPlates™ were then centrifuged at 2000×g for 10 min. Stimulation of GTPγ[^35S] binding was then quantified using a Wallac Microbeta® [16].
# Saturation and competition radioligand binding assays were used to characterize membranes prepared from human recombinant CB1 and CB2 and rat brain membranes.
# [6] = system: other receptors, ion channels, and uptake sites (Table 2); experiment: Binding panel at 1 μM; conditions: any site of Table 2
# Description: as §1
# [7] = Fast-induced re-feeding food intake; assay type: in vivo, rat; conditions: for Food Intake % decrease (mean ± SEM): 2 hr after return of food
# Description: All animal studies were approved by the Institutional Animal Care and Use Committee. Male Sprague Dawley rats on normal chow (8 weeks old, 250-300 g on arrival, 300-350 g on test day) were obtained from Charles River. After arrival, animals were individually housed and placed on powdered rat chow. Rats were maintained on a 12-hr light/dark cycle and received food and water ad libitum. In all studies CE-178253 and veh (0.5% methyl cellulose) administration to rats and mice was by oral gavage.
# For the fast-induced re-feeding assay, food was removed from the cages the afternoon preceding the test day and the rats were fasted overnight. After the overnight fast, rats were administered veh. or CE-178253. […]
# Administration of CE-178253 to male S-D rats inhibited overnight fast-induced refeeding. S-D rats were fasted overnight and veh. (0.5% methylcellulose; MC) or CE-178253 was administered orally. Food was provided to the rats 30 min after dosing. Food intake was measured 30 min and 2 hr after return of food. Dose- and unbound plasma concentration-dependent decreases in cumulative FI versus veh. were observed (Figure 4A, B, Table 3) at both time points after return of food. However, the efficacy (as a percent) was greater in the 0.5-2 hr interval than in the first 0.5 interval. In contrast, FI efficacy in the dark-phase feeding was consistent throughout the first four hr (Figure 3B).
# [8] = Rat oral PK studies; assay type: in vivo
smiles,measurement,setting,value
CCNC1(C(N)=O)CN(c2nc(C)nc3c(-c4ccc(Cl)cc4)c(-c4ccccc4Cl)nn23)C1 [CE-178253],Effect on CP-55940 responses in all four components of the tetrad,[1],dose-dependently reversed
same,Receptor occupancy required for maximum efficacy,"[2]; calculated, energy intake and expenditure models",50-75%
same,receptor occupancy at 0.3 mg/kg,"[2]; rat, po, 0.3 mg/kg p.o., brains removed 2 hr after return of food, read-out: % Receptor Occupancy (mean ± S-D)",27 ± 12%
same,receptor occupancy at 1 mg/kg,"[2]; rat, po, 1 mg/kg p.o., brains removed 2 hr after return of food, read-out: % Receptor Occupancy (mean ± S-D)",64 ± 2%
same,receptor occupancy at 3 mg/kg,"[2]; rat, po, 3 mg/kg p.o., brains removed 2 hr after return of food, read-out: % Receptor Occupancy (mean ± S-D)",78 ± 6%
same,receptor occupancy at 10 mg/kg,"[2]; rat, po, 10 mg/kg p.o., brains removed 2 hr after return of food, read-out: % Receptor Occupancy (mean ± S-D)",82 ± 2%
same,Respiratory Quotient (VCO2/VO2),[3]; 1 mg/kg p.o.,0.74 ± 0.02
same,"VO2, ave, 1-3 hr (± S-D), increase in oxygen consumption",[3]; 1 mg/kg p.o.,28% and 28 ± 7 %
same,Respiratory Quotient (VCO2/VO2),[3]; 3 mg/kg p.o.,0.75 ± 0.03
same,"VO2, ave, 1-3 hr (± S-D), increase in oxygen consumption",[3]; 3 mg/kg p.o.,39% and 39 ± 5 %
same,Respiratory quotient after dosing,"[3]; declined from 0.85 over the first hr, dose not stated",0.75
same,Acute stimulation of energy expenditure,"[3]; rats, dose not stated",greater than 30%
same,inhibition at 10 µM,[4],11%
same,Kb,[5]; GTPγ[35S] assay,0.63 nM
same,Slope,"[5]; GTPγ[35S] functional assay, Schild slope",0.83
same,Ki,"[5]; inhibition of CP-55940-stimulated GTPγ[35S] binding, read-out: Antagonist Ki, GTPγ[35S] functional assay",0.07 ± 0.01 nM
same,Inhibition of binding at panel sites,[6],≤ 50%
same,Food Intake % decrease (mean ± SEM),[7]; 0.3 mg/kg p.o.,6 ± 3%
same,Food Intake % decrease (mean ± SEM),[7]; 1 mg/kg p.o.,25 ± 11%
same,Food Intake % decrease (mean ± SEM),[7]; 3 mg/kg p.o.,62 ± 5.2 %
same,Food Intake % decrease (mean ± SEM),[7]; 10 mg/kg p.o.,75 ± 6.2 %
same,EC50,"[7]; Rattus norvegicus, […], read-out: EC50, reduction of food intake",0.95 nM
same,Reduction in FI,"[7]; interval between dosing and return of food extended to 2 hr, at 50% receptor occupancy, p < 0.05",27%
same,Maximal FI reduction,[7]; two hr,70%
same,Exposure in chow-fed versus DIO rats,[8]; PK studies,no differences in exposure
same,Tmax,"[8]; Sprague Dawley, rat, in vivo, oral, data not shown",1 h

# Source: PMC2933614, “Quantitative in vitro and in vivo pharmacological profile of CE-178253, a potent and selective cannabinoid type 1 (CB1) Receptor Antagonist” (BMC Pharmacology, 2010)
